Read-outs that look alike come from different tables or passages of the source.
How the values were obtained:
[1] = molecular target: β-lactamase; experiment: β-Lactamase enzyme inhibitory activity assay; assay type: biochemical; conditions: β-lactamase inhibition assay
Method: . The percent inhibitory curves for the candidate natural compounds with efficacy for NDM-1 and β-lactamase enzyme are given in Figures 5(a) and 5(b). The natural compounds were incubated with NDM-1 enzyme, and the substrate, nitrocefin, and hydrolysis of the substrate were monitored at 490 nm OD.
The eight candidate natural compounds identified by in silico analysis against NDM-1 were also tested for β-lactamase inhibition assay. […]

[2] = test system: PAN resistance A. baumannii clinical isolate (strain number: P-29); experiment: Checkerboard synergy titration assay with imipenem (FIC); assay type: cell-based; conditions: compound 128 mg/L with imipenem; carbapenem-resistant A. baumannii clinical strain
Method: The combined effect of the natural compounds and imipenem (Zhejiang Hisun Pharmaceutical, China) was done using the checkerboard synergy titration assay in a 96-well microtitre plate. Imipenem was tested at concentrations of […] than their MIC and two dilutions higher than the MIC. MIC concentration of imipenem (4x) was added in all wells under column 1 of the 96-well checkerboard panel for each concentration of natural compounds (one each row). The compounds were serially diluted at different subinhibitory concentrations, and each concentration was added to the corresponding rows.
A FIC = 0.5 for a compound was taken as synergistic, FIC > 0.5 − 4 was additive/indifferent, and FIC > 4 was taken as antagonistic.
The checkerboard method was used to design the dilution panel, with twofold concentrations above the MIC of the antibiotics and MIC concentration and fivefold below the MIC.

[3] = molecular target: T1, Recombinant NDM-1 enzyme (Klebsiella pneumoniae, UniProt C7C422); experiment: biochemical
T1 construct: purchased RayBiotech Life 230-00554-500
Method: The NDM-1 enzyme inhibition assay was carried out spectrophotometrically using nitrocefin as a chromogenic substrate as described previously [27].
The natural compounds were incubated with NDM-1 enzyme, and the substrate, nitrocefin, and hydrolysis of the substrate were monitored at 490 nm OD.

[4] = 1 nM NDM-1, 10 μM ZnSO4, nitrocefin 60 μM, 490 nm, 30°C, compounds 10-100 μM, read-out: IC50 NDM-1 enzyme activity

T1 sequence (C7C422 29-270 limits assumed): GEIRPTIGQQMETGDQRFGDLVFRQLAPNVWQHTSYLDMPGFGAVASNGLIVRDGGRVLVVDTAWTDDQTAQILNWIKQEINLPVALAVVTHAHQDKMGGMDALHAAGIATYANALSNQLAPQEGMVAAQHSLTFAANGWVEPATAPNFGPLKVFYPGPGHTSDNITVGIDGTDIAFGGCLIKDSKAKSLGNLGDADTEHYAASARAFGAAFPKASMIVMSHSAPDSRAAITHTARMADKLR

IC50 [3, 4]	Structure (SMILES)	IC50 [1]	FIC index [2]	IC50 [3]
	CC1=C(CO)C(=O)O[C@@H]([C@@H](C)[C@H]2CC[C@H]3[C@@H]4C[C@H]5O[C@]56[C@@H](O)C=CC(=O)[C@]6(C)[C@H]4CC[C@]23C)C1 [Withaferin A]	32.8 ± 2.59 µM	0.3125	24 ± 2.92 µM
	O=c1c2cc(O)c(O)cc2oc2cc(O)c([C@@H]3O[C@H](CO)[C@@H](O)[C@H](O)[C@H]3O)c(O)c12 [Mangiferin]	58 ± 2.08 µM	0.625	30.6 ± 4.41 µM
97.5 ± 5.59 µM	COc1c(O)cc2oc3cc(O)c(CC=C(C)C)c(O)c3c(=O)c2c1CC=C(C)C [Mangostin]	136 ± 37.1 µM		
	CC1(C)[C@H](C(=O)O)N2C(=O)C[C@H]2S1(=O)=O [sulbactam, reference compound]	7.24 ± 0.392 µM		
48.9 ± 3.74 µM	C[C@@H]1O[C@@H](OC[C@H]2O[C@@H](Oc3c(-c4ccc(O)c(O)c4)oc4cc(O)cc(O)c4c3=O)[C@H](O)[C@@H](O)[C@@H]2O)[C@H](O)[C@H](O)[C@H]1O [Rutin]	127 ± 15.9 µM		

— article PMC8966755, “In Silico and In Vitro Screening of Natural Compounds as Broad-Spectrum β-Lactamase Inhibitors against Acinetobacter baumannii New Delhi Metallo-β-lactamase-1 (NDM-1)” (BioMed Research International, 2022)
